Measurements reported in patent US9783537B2, “3-(4-ethylnylphenyl) pyridopyrimidinone compounds and process for preparation thereof useful as potential anticancer agents” (Council of Scientific & Industrial Research, priority 2013, dated 2017).
Where two headings read alike, the source gives them in different places.

Key:
K-562 = test: SRB 48 h growth assay, Leukemia K-562; type: cell-based, human
OVCAR-4 = test: SRB 48 h growth assay, Ovarian OVCAR-4; type: cell-based, human; conditions: OVCAR-4, Ovarian
MCF7 = test: SRB 48 h growth assay, Breast MCF7; type: cell-based, human
MDA-MB-231/ATCC = test: SRB 48 h growth assay, Breast MDA-MB-231/ATCC; type: cell-based, human
HL-60(TB) = test: SRB 48 h growth assay, Leukemia HL-60(TB); type: cell-based, human
RPMI-8226 = test: SRB 48 h growth assay, Leukemia RPMI-8226; type: cell-based, human; conditions: RPMI-8226, Leukemia
NCI-H322M = test: SRB 48 h growth assay, Non-small Cell Lung NCI-H322M; type: cell-based, human
[1] = in vitro anticancer activity, melanoma panel; type: cell-based; conditions: Homo sapiens; nine melanoma cell lines, exposure at least 48 h; read-out: GI50, range over panel
OVCAR-5 = test: SRB 48 h growth assay, Ovarian OVCAR-5; type: cell-based, human; conditions: OVCAR-5, Ovarian
SK-MEL-5 = test: SRB 48 h growth assay, Melanoma SK-MEL-5; type: cell-based, human; conditions: SK-MEL-5, Melanoma
[2] = test system: seven colon cancer cell line (COLO 205, HCC-2998, HCT-116, HCT-15, HT29, KM12 and SW-620); test: in vitro anticancer activity, colon panel; type: cell-based; conditions: Homo sapiens; seven colon cancer cell lines, exposure at least 48 h; read-out: GI50, range over panel
SNB-75 = test: SRB 48 h growth assay, CNS SNB-75; type: cell-based, human; conditions: SNB-75, CNS
HCT-15 = test: SRB 48 h growth assay, Colon HCT-15; type: cell-based, human; conditions: HCT-15, Colon
KM12 = test: SRB 48 h growth assay, Colon KM12; type: cell-based, human
HOP-92 = test: SRB 48 h growth assay, Non-small Cell Lung HOP-92; type: cell-based, human; conditions: HOP-92, Non-small Cell Lung
RXF393 = test: SRB 48 h growth assay, Renal RXF393; type: cell-based, human
T-47D = test: SRB 48 h growth assay, Breast T-47D; type: cell-based, human
SF-268 = test: SRB 48 h growth assay, CNS SF-268; type: cell-based, human; conditions: SF-268, CNS
HOP-62 = test: SRB 48 h growth assay, Non-small Cell Lung HOP-62; type: cell-based, human; conditions: HOP-62, Non-small Cell Lung
TK-10 = test: SRB 48 h growth assay, Renal TK-10; type: cell-based, human; conditions: TK-10, Renal
A498 = test: SRB 48 h growth assay, Renal A498; type: cell-based, human
UACC-62 = test: SRB 48 h growth assay, Melanoma UACC-62; type: cell-based, human; conditions: UACC-62, Melanoma
SW-620 = test: SRB 48 h growth assay, Colon SW-620; type: cell-based, human; conditions: SW-620, Colon
COLO 205 = test: SRB 48 h growth assay, Colon COLO 205; type: cell-based, human; conditions: COLO 205, Colon
SF-539 = test: SRB 48 h growth assay, CNS SF-539; type: cell-based, human; conditions: SF-539, CNS
DU-145 = test: SRB 48 h growth assay, Prostate DU-145; type: cell-based, human; conditions: DU-145, Prostate
[3] = Homo sapiens, read-out: Growth Inhibition GI50
[4] = Homo sapiens, read-out: Log10 GI50 (converted)
[5] = Homo sapiens, read-out: Log10 LC50 (converted)

## C#Cc1ccc(-n2c(/C=C/c3cc(OC)c(OC)c(OC)c3)nc3ncccc3c2=O)cc1 [4q, (E)-3-(4-Ethynylphenyl)-2-(3,4,5-trimethoxystyryl)pyrido[2,3-d]pyrimidin-4(3H)-one]
K-562; Homo sapiens, K562, K-562, Leukemia, read-out: Growth Inhibition GI50
  GI50: 3.83 µM
K-562; Homo sapiens, K562, K-562, Leukemia, read-out: Log10 GI50 (converted)
  GI50: 3.8 µM
K-562; Homo sapiens, K562, K-562, Leukemia, read-out: Log10 LC50 (converted)
  CC50: > 100 µM
K-562; K-562, Leukemia
  Log10 TGI50: >−4.00
OVCAR-4; [3]
  GI50: 12 µM
OVCAR-4; [4]
  GI50: 12 µM
OVCAR-4; [5]
  CC50: > 100 µM
OVCAR-4
  Log10 TGI50: −4.04
MCF7
  Log10 TGI50: >−4.00
MCF7; [3]
  GI50: 3.17 µM
MCF7; [4]
  GI50: 3.16 µM
MCF7; [5]
  CC50: > 100 µM
MDA-MB-231/ATCC
  Log10 TGI50: >−4.00
MDA-MB-231/ATCC; [3]
  GI50: 5.53 µM
MDA-MB-231/ATCC; [4]
  GI50: 5.5 µM
MDA-MB-231/ATCC; [5]
  CC50: > 100 µM
HL-60(TB)
  Log10 TGI50: −4.59
HL-60(TB); [3]
  GI50: 3.84 µM
HL-60(TB); [4]
  GI50: 3.8 µM
HL-60(TB); [5]
  CC50: > 100 µM
RPMI-8226; [3]
  GI50: 3.6 µM
RPMI-8226; [4]
  GI50: 3.63 µM
RPMI-8226; [5]
  CC50: > 100 µM
RPMI-8226
  Log10 TGI50: >−4.00
NCI-H322M
  Log10 TGI50: >−4.00
NCI-H322M; [3]
  GI50: 14.1 µM
NCI-H322M; [4]
  GI50: 14.1 µM
NCI-H322M; [5]
  CC50: > 100 µM
[1]
  GI50: 1490 to 2270 nM
OVCAR-5; [3]
  GI50: > 100 µM
OVCAR-5; [4]
  GI50: > 100 µM
OVCAR-5; [5]
  CC50: > 100 µM
OVCAR-5
  Log10 TGI50: >−4.00
SK-MEL-5; [3]
  GI50: 1780 nM
SK-MEL-5; [4]
  GI50: 1780 nM
SK-MEL-5; [5]
  CC50: 18.2 µM
SK-MEL-5
  Log10 TGI50: −5.36
[2]
  GI50: 1640 to 2230 nM
SNB-75; [3]
  GI50: 3.88 µM
SNB-75; [4]
  GI50: 3.89 µM
SNB-75; [5]
  CC50: > 100 µM
SNB-75
  Log10 TGI50: >−4.00
HCT-15
  Log10 TGI50: >−4.00
HCT-15; [3]
  GI50: 5.58 µM
HCT-15; [4]
  GI50: 5.62 µM
HCT-15; [5]
  CC50: > 100 µM
KM12
  Log10 TGI50: −4.89
KM12; [3]
  GI50: 3.32 µM
KM12; [4]
  GI50: 3.31 µM
KM12; [5]
  CC50: > 100 µM
HOP-92
  Log10 TGI50: −5.11
HOP-92; [3]
  GI50: 2310 nM
HOP-92; [4]
  GI50: 2290 nM
HOP-92; [5]
  CC50: > 100 µM
RXF393
  Log10 TGI50: >−4.00
RXF393; Homo sapiens, RXF 393, read-out: Growth Inhibition GI50
  GI50: 7.04 µM
RXF393; Homo sapiens, RXF 393, read-out: Log10 GI50 (converted)
  GI50: 7.08 µM
RXF393; Homo sapiens, RXF 393, read-out: Log10 LC50 (converted)
  CC50: > 100 µM
T-47D
  Log10 TGI50: >−4.00
T-47D; Homo sapiens, T47D, read-out: Growth Inhibition GI50
  GI50: 5.85 µM
T-47D; Homo sapiens, T47D, read-out: Log10 GI50 (converted)
  GI50: 5.89 µM
T-47D; Homo sapiens, T47D, read-out: Log10 LC50 (converted)
  CC50: > 100 µM
SF-268; [3]
  GI50: 5.33 µM
SF-268; [4]
  GI50: 5.37 µM
SF-268; [5]
  CC50: > 100 µM
SF-268
  Log10 TGI50: −4.01
HOP-62
  Log10 TGI50: >−4.00
HOP-62; [3]
  GI50: 13.3 µM
HOP-62; [4]
  GI50: 13.2 µM
HOP-62; [5]
  CC50: > 100 µM
TK-10; [3]
  GI50: 17.3 µM
TK-10; [4]
  GI50: 17.4 µM
TK-10; [5]
  CC50: > 100 µM
TK-10
  Log10 TGI50: −4.20
A498
  Log10 TGI50: −5.01
A498; [3]
  GI50: 2630 nM
A498; [4]
  GI50: 2630 nM
A498; [5]
  CC50: > 100 µM
UACC-62; [3]
  GI50: 6.9 µM
UACC-62; [4]
  GI50: 6.92 µM
UACC-62; [5]
  CC50: > 100 µM
UACC-62
  Log10 TGI50: >−4.00
SW-620; [3]
  GI50: 3.29 µM
SW-620; [4]
  GI50: 3.31 µM
SW-620; [5]
  CC50: > 100 µM
SW-620
  Log10 TGI50: −4.30
COLO 205
  Log10 TGI50: −4.92
COLO 205; [3]
  GI50: 3.19 µM
COLO 205; [4]
  GI50: 3.16 µM
COLO 205; [5]
  CC50: > 100 µM
SF-539; [3]
  GI50: 4.57 µM
SF-539; [4]
  GI50: 4.57 µM
SF-539; [5]
  CC50: > 100 µM
SF-539
  Log10 TGI50: −4.42
DU-145
  Log10 TGI50: >−4.00
DU-145; [3]
  GI50: 5.36 µM
DU-145; [4]
  GI50: 5.37 µM
DU-145; [5]
  CC50: > 100 µM
